Data as given in PubChem BioAssay AID1552 (Sanford-Burnham Center for Chemical Genomics, 2009).
Active and inactive are the calls of the source. No rule for the calls is given here.

What follows are molecules tested against Ubiquitin-conjugating enzyme E2 N (Homo sapiens) (UniProt P61088) (assay: UBE2N binders by NMR, biophysical, purified protein (AID 1552)). Details: NMR binding to purified UBE2N.
Sequence of Ubiquitin-conjugating enzyme E2 N (Homo sapiens) (P61088 whole entry, looked up): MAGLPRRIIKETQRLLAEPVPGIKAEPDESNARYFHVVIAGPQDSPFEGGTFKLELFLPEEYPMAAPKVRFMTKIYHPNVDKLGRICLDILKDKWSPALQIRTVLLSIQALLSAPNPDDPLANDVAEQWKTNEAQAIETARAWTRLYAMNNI

**Q.** `Cc1occc1C(=O)Nc1ccc(C(N)=O)cc1` was tested. Which Kd did it give?
**A.** > 4 mM (inactive)

**Q.** With `Cc1cc(=O)[nH]c(N2CCCCC2)n1` as the molecule, how does the Kd read?
**A.** > 4 mM (inactive)

**Q.** Which Kd does the source give for `CCNC(=S)Nc1c(C)n(C)n(-c2ccccc2)c1=O` here?
**A.** > 4 mM (inactive)

**Q.** `O=C(O)c1ccc(-n2cncn2)cc1` was tested. Which Kd did it give?
**A.** > 4 mM (inactive)

**Q.** How did the Kd turn out when `CC(=O)OC1CCC2(O)CC1(C)CCC1C2CC1(C)C` (configuration not stated) was run?
**A.** > 4 mM (inactive)

**Q.** Which Kd does the source give for `Cc1onc(-c2c(F)cccc2Cl)c1C(N)=O` here?
**A.** > 4 mM (inactive)

**Q.** For `O=[N+]([O-])c1cccc(CN2CCC(O)CC2)c1`, which Kd is on record?
**A.** > 4 mM (inactive)

**Q.** For `CC(C)(O)[C@@H]1Cc2cc3ccc(=O)oc3cc2O1`, which Kd is on record?
**A.** > 4 mM (inactive)

**Q.** With `CCOC(=O)C1CCNCC1` as the molecule, how does the Kd read?
**A.** > 4 mM (inactive)

**Q.** With `Cc1nc(N2CCOCC2)[nH]c(=O)c1C` as the molecule, how does the Kd read?
**A.** > 4 mM (inactive)

**Q.** How did the Kd turn out when `OCc1cc2ccccc2o1` was run?
**A.** > 4 mM (inactive)

**Q.** Which Kd does the source give for `C=CCn1c(=S)[nH]c2ccc(Br)cc2c1=O` here?
**A.** > 4 mM (inactive)

**Q.** `NCc1ccc2c(c1)OCCCO2` was tested. Which Kd did it give?
**A.** > 4 mM (inactive)

**Q.** How did the Kd turn out when `Nc1ncnc2c1ncn2[C@@H]1O[C@H](CO)[C@@H](O)[C@H]1O` was run?
**A.** > 4 mM (inactive)

**Q.** With `Cc1ccc(C(=O)CS(C)(=O)=O)cc1` as the molecule, how does the Kd read?
**A.** > 4 mM (inactive)

**Q.** Which Kd does the source give for `COC(=O)CCC(C)[C@H]1CCC2C3C(C[C@H](O)[C@@]21C)[C@@]1(C)CC[C@@H](O)C[C@H]1C[C@H]3O` (some centres not stated) here?
**A.** > 4 mM (inactive)

**Q.** How did the Kd turn out when `COc1ccc(-c2noc(-c3ccco3)n2)cc1OC` was run?
**A.** > 4 mM (inactive)

**Q.** With `Cc1occc1C(=O)N1CCC2(CC1)OCCO2` as the molecule, how does the Kd read?
**A.** > 4 mM (inactive)

**Q.** `NC(=O)CC[C@H](N)C(=O)O` was tested. Which Kd did it give?
**A.** > 4 mM (inactive)

**Q.** Which Kd does the source give for `O=C(O)c1ccc2c(c1)CCO2` here?
**A.** > 4 mM (inactive)

**Q.** Which Kd does the source give for `OCC1Cc2ccccc2CN1` (configuration not stated) here?
**A.** > 4 mM (inactive)

**Q.** For `Cn1nc(-c2ccccc2)cc1N`, which Kd is on record?
**A.** > 4 mM (inactive)

**Q.** With `COc1ccc2c(c1)OCc1c-2oc2cc(OC)ccc12` as the molecule, how does the Kd read?
**A.** > 4 mM (inactive)

**Q.** How did the Kd turn out when `O=C(c1cnsn1)N1CCN(c2ccccc2)CC1` was run?
**A.** > 4 mM (inactive)

**Q.** With `CCOC(=O)Cn1cnc2sc3c(c2c1=O)CCC3` as the molecule, how does the Kd read?
**A.** > 4 mM (inactive)

**Q.** For `O=C(c1ccccc1-c1ccccc1)N1CCOCC1`, which Kd is on record?
**A.** > 4 mM (inactive)

**Q.** For `COc1cc2c(cc1OC)C1(O)C(=O)c3ccc(O)c(C(=O)O)c3OC1CO2` (configuration not stated), which Kd is on record?
**A.** > 4 mM (inactive)

**Q.** Which Kd does the source give for `COc1ccc(CN2CCOCC2)c(C)c1C` here?
**A.** > 4 mM (inactive)

**Q.** How did the Kd turn out when `Cc1cc(NC(=O)CS(=O)(=O)c2ccccc2)no1` was run?
**A.** > 4 mM (inactive)

**Q.** Which Kd does the source give for `O=C(Nc1ccccc1CO)c1ccccc1F` here?
**A.** > 4 mM (inactive)

**Q.** `Cc1cc(N)n(C2CCOC(C)(C)C2)n1` (configuration not stated) was tested. Which Kd did it give?
**A.** > 4 mM (inactive)

**Q.** How did the Kd turn out when `O=C(O)c1[nH]nc2c1COc1ccccc1-2` was run?
**A.** > 4 mM (inactive)

**Q.** With `O=C1c2ccccc2C(=O)c2c(O)c(O)cc(O)c21` as the molecule, how does the Kd read?
**A.** > 4 mM (inactive)

**Q.** For `C=C1C(=O)OC2CC1C(OC(C)=O)C/C(C)=C/CC/C(C)=C/CC[C@]2(C)O` (some centres not stated), which Kd is on record?
**A.** > 4 mM (inactive)

**Q.** `COC(=O)CSc1nc(N)cc(=O)[nH]1` was tested. Which Kd did it give?
**A.** > 4 mM (inactive)

**Q.** How did the Kd turn out when `NCc1ccc(-c2cccs2)s1` was run?
**A.** > 4 mM (inactive)

**Q.** Which Kd does the source give for `c1ccc(-n2cnnc2)nc1` here?
**A.** > 4 mM (inactive)

**Q.** For `COC(=O)/C(=C1\OC(=O)C(c2ccccc2)C1=O)c1ccccc1` (configuration not stated), which Kd is on record?
**A.** > 4 mM (inactive)

**Q.** For `COc1ccccc1-c1noc(-c2ccncc2)n1`, which Kd is on record?
**A.** > 4 mM (inactive)

**Q.** Which Kd does the source give for `COc1ccc(C2CC(=O)NN2)cc1OC1CCCC1` (configuration not stated) here?
**A.** > 4 mM (inactive)

**Q.** Which Kd does the source give for `CCn1ncc(Cl)c1C(=O)Nc1ccncc1` here?
**A.** > 4 mM (inactive)

**Q.** `O=C1C(=O)N(CNc2ncccn2)c2ccccc21` was tested. Which Kd did it give?
**A.** > 4 mM (inactive)

**Q.** With `CC(C)CNc1cc(=O)n(C)c(=O)n1C` as the molecule, how does the Kd read?
**A.** > 4 mM (inactive)

**Q.** With `CC1(C)CC2C1CCC1(C)OC1CCC2(C)O` (configuration not stated) as the molecule, how does the Kd read?
**A.** > 4 mM (inactive)

**Q.** With `COc1ccc(/C=C2\SC(N)=NC2=O)cc1` as the molecule, how does the Kd read?
**A.** > 4 mM (inactive)

**Q.** `O=C1c2ccccc2-c2ncnc3cccc1c23` was tested. Which Kd did it give?
**A.** > 4 mM (inactive)

**Q.** For `NCC(=O)c1ccccc1`, which Kd is on record?
**A.** > 4 mM (inactive)

**Q.** For `Cc1cc(C)n(-c2cccc3cccnc23)n1`, which Kd is on record?
**A.** > 4 mM (inactive)

**Q.** Which Kd does the source give for `NC1=NC(=O)C(CC(=O)Nc2ccccc2F)S1` (configuration not stated) here?
**A.** > 4 mM (inactive)

**Q.** How did the Kd turn out when `CCC(=O)NC(=S)Nc1ccc(C(N)=O)cc1` was run?
**A.** > 4 mM (inactive)

**Q.** `CS(C)=C1C(=O)NC(=O)N(c2ccccc2)C1=O` was tested. Which Kd did it give?
**A.** > 4 mM (inactive)

**Q.** `CCN1CCC(NC2CCCCNC2=O)CC1` (configuration not stated) was tested. Which Kd did it give?
**A.** > 4 mM (inactive)

**Q.** How did the Kd turn out when `CC(=O)Nc1cnn(Cc2ccc(Br)cc2)c1` was run?
**A.** > 4 mM (inactive)

**Q.** For `CN(C)c1oc(-c2ccccc2Cl)nc1C#N`, which Kd is on record?
**A.** > 4 mM (inactive)

**Q.** Which Kd does the source give for `O=C1CCC(=O)N1CNc1ccccc1` here?
**A.** > 4 mM (inactive)

**Q.** For `NC(=O)CSc1ccccn1`, which Kd is on record?
**A.** > 4 mM (inactive)

**Q.** With `CCC(CO)NC(=O)c1snnc1C` (configuration not stated) as the molecule, how does the Kd read?
**A.** > 4 mM (inactive)

**Q.** `C[C@@H]1CC[C@]2(C(=O)O)CC[C@]3(C)C(=CCC4[C@@]5(C)CC[C@H](O)C(C)(C)C5CC[C@]43C)C2[C@H]1C` (some centres not stated) was tested. Which Kd did it give?
**A.** > 4 mM (inactive)

**Q.** With `CNC(=O)C(=O)Nc1ccc(C)c(C)c1` as the molecule, how does the Kd read?
**A.** > 4 mM (inactive)

**Q.** `NC12CC3CC(C1)CC(CC(=O)O)(C3)C2` was tested. Which Kd did it give?
**A.** > 4 mM (inactive)

**Q.** `Cc1nc(NCc2ccco2)nc2c1C(=O)CC(C)C2` (configuration not stated) was tested. Which Kd did it give?
**A.** > 4 mM (inactive)

**Q.** For `COC(=O)Cn1c2ccccc2c2nc(C)sc21`, which Kd is on record?
**A.** > 4 mM (inactive)

**Q.** Which Kd does the source give for `CCOC(=O)c1c(C)nc2ncccn12` here?
**A.** > 4 mM (inactive)

**Q.** With `O=S(=O)(O)c1nc2ccccc2[nH]1` as the molecule, how does the Kd read?
**A.** > 4 mM (inactive)

**Q.** For `O=C1C2C3C=CC(O3)C2C(=O)N1c1ccccc1` (configuration not stated), which Kd is on record?
**A.** > 4 mM (inactive)

**Q.** How did the Kd turn out when `S=C(NCC1CCCO1)NC1CC1` (configuration not stated) was run?
**A.** > 4 mM (inactive)

**Q.** Which Kd does the source give for `Cc1noc(C)c1C(=O)Nc1ccccn1` here?
**A.** > 4 mM (inactive)

**Q.** `COC(=O)C1[C@H]2C[C@H]3c4[nH]c5ccccc5c4CCN3C[C@@H]2CC[C@@H]1O` (some centres not stated) was tested. Which Kd did it give?
**A.** > 4 mM (inactive)

**Q.** For `Cc1n[nH]c(=O)nc1N1CCN(c2ccccc2)CC1`, which Kd is on record?
**A.** > 4 mM (inactive)

**Q.** For `CC(=O)NC1=NN(c2ccccc2)C(=O)C1`, which Kd is on record?
**A.** > 4 mM (inactive)

**Q.** For `COc1ccc(S(=O)(=O)N2CCC(C(N)=O)CC2)cc1`, which Kd is on record?
**A.** > 4 mM (inactive)

**Q.** For `Cn1ccc(C(=O)NC(=S)NN2CCOCC2)n1`, which Kd is on record?
**A.** > 4 mM (inactive)

**Q.** For `CC1CCC2(OC1)OC1CC3C4CCC5C[C@@H](O)CCC5(C)C4=CCC3(C)C1[C@@H]2C` (some centres not stated), which Kd is on record?
**A.** > 4 mM (inactive)

**Q.** `O=C(CN1CCOCC1)Nc1cccc(Br)c1` was tested. Which Kd did it give?
**A.** > 4 mM (inactive)

**Q.** Which Kd does the source give for `C[C@@H]1O[C@@H](O[C@H]2C[C@@H](O)[C@]3(CO)C4C(CC[C@]3(O)C2)[C@@]2(O)CC[C@H](C3=CC(=O)OC3)[C@@]2(C)C[C@H]4O)[C@H](O)[C@H](O)[C@H]1O` (some centres not stated) here?
**A.** > 4 mM (inactive)

**Q.** How did the Kd turn out when `O=P(c1ccccc1)(c1ccccc1)C1CCOCC1` was run?
**A.** > 4 mM (inactive)

**Q.** How did the Kd turn out when `C=C(C)[C@H]1COc2cc3oc(=O)ccc3cc2O1` was run?
**A.** > 4 mM (inactive)

**Q.** For `O=C(Nc1cnccn1)c1cccnc1`, which Kd is on record?
**A.** > 4 mM (inactive)

**Q.** For `O=C1C2CC=CCC2C(=O)N1c1ccccc1O` (configuration not stated), which Kd is on record?
**A.** > 4 mM (inactive)

**Q.** With `CC(C)c1ccccc1NC(=O)c1cnccn1` as the molecule, how does the Kd read?
**A.** > 4 mM (inactive)

**Q.** With `CCSc1nnc(-c2ccccc2N)c(=O)[nH]1` as the molecule, how does the Kd read?
**A.** > 4 mM (inactive)

**Q.** Which Kd does the source give for `CSc1cc(C)[nH]c(=O)n1` here?
**A.** > 4 mM (inactive)

**Q.** Which Kd does the source give for `O=C1CSC(=Nc2ccc(F)cc2)N1` here?
**A.** > 4 mM (inactive)

**Q.** Which Kd does the source give for `OC1CCN(c2nccc(C(F)(F)F)n2)CC1` here?
**A.** > 4 mM (inactive)

**Q.** How did the Kd turn out when `O=c1c(Cl)c(NCCO)ncn1-c1ccccc1` was run?
**A.** > 4 mM (inactive)

**Q.** For `O=C(c1ccc(F)cc1)N1CCOCC1`, which Kd is on record?
**A.** > 4 mM (inactive)

**Q.** `O=C1COc2cc(O)ccc21` was tested. Which Kd did it give?
**A.** > 4 mM (inactive)
